Test results reported in ChEMBL document CHEMBL5390204, “Persephacin Is a Broad-Spectrum Antifungal Aureobasidin Metabolite That Overcomes Intrinsic Resistance in Aspergillus fumigatus” (J Nat Prod, 2023).
Values after ≈ are worked out from the molar mass of the structure shown. Active and inactive are the calls of the source. No cut-off for these calls is given here.

Experiments:
Fusarium solani = test: Antifungal activity against Fusarium solani 243G2 assessed as reduction in fungal growth incubated for 48 hrs by microplate reader analysis; type: functional
Candida parapsilosis = test: Antifungal activity against Candida parapsilosis ATCC 22019 (Y-12969) assessed as reduction in fungal growth incubated for 48 hrs by microplate reader analysis; type: functional; conditions: Lodderomyces parapsilosis
Candida albicans [1] = test: Antifungal activity against Candida albicans 5 assessed as inhibition in fungal growth incubated for 48 hrs by microplate reader analysis; type: functional
[2] = Toxicity against human eye model assessed as irritation at 10 to 1000 uM; type: tissue-based; conditions: dose 10-1000 µM
Candida albicans [3] = test: Antifungal activity against fluconazole-resistant Candida albicans SC5314 infected in pig cornea assessed as suppression of fungal growth at 0.1 % administered post fungal infection measured after 4 days by microscopic analysis; type: functional, organism-based; conditions: time 4.0 day
[4] = Toxicity against human skin model at 10 to 1000 uM; type: tissue-based, Skin of body; conditions: dose 10-1000 µM
[Candida] haemuloni = Antifungal activity against multidrug-resistant Candida haemulonii 393 assessed as inhibition in fungal growth incubated for 48 hrs by microplate reader analysis; type: functional; conditions: Candidozyma haemuli
Aspergillus fumigatus = test: Antifungal activity against Aspergillus fumigatus NRRL5109 infected in pig cornea assessed as suppression of fungal growth at 0.1 % administered post fungal infection measured after 4 days by microscopic analysis; type: functional, organism-based; conditions: time 4.0 day
Candida albicans [5] = test: Antifungal activity against Candida albicans SC5314 infected in pig cornea assessed as suppression of fungal growth at 0.1 % administered post fungal infection measured after 4 days by microscopic analysis; type: functional, organism-based; conditions: time 4.0 day
Nakaseomyces glabratus = test: Antifungal activity against Candida glabrata 11 assessed as inhibition in fungal growth incubated for 48 hrs by microplate reader analysis; type: functional

| SMILES | MFC (Fusarium solani) [µM] | MIC80 (Fusarium solani) [µM] | MFC (Candida parapsilosis) [µM] | MIC80 (Candida parapsilosis) [µM] | MIC80 (Candida albicans [1]) [µM] | Activity [2] | Activity (Candida albicans [3]) | Activity [4] | MIC80 ([Candida] haemuloni) [µM] | Activity (Aspergillus fumigatus) | Activity (Candida albicans [5]) | MIC80 (Nakaseomyces glabratus) [µM] |
| --- | --- | --- | --- | --- | --- | --- | --- | --- | --- | --- | --- | --- |
| CC[C@H](C)C[C@H](C)C[C@H](C)C[C@@H]1NC(=O)[C@H](C(C)C)N(C)C(=O)[C@@H]([C@H](C)CC)OC(=O)[C@H](C(C)(C)O)N(C)C(=O)[C@H](CC(C)C)NC(=O)[C@H](C(C)C)N(C)C(=O)[C@H]([C@H](C)CC)NC(=O)[C@@H]2CCCN2C(=O)CN(C)C1=O | 2.5 (≈ 2.69 µg/mL) | 1.3 (≈ 1.4 µg/mL) | 2.5 (≈ 2.69 µg/mL) | 2.5 (≈ 2.69 µg/mL) | 1.3 (≈ 1.4 µg/mL) | Non-Toxic | Active | Non-Toxic | 0.3 (≈ 0.323 µg/mL) | Active | Active | 0.6 (≈ 0.645 µg/mL) |
| C[C@@H]1[C@H](O)[C@@H](C)/C=C/C=C/C=C/C=C/C=C/C=C/C=C/[C@H](O[C@@H]2O[C@H](C)[C@@H](O)[C@H](N)[C@@H]2O)C[C@@H]2O[C@](O)(C[C@@H](O)C[C@@H](O)[C@H](O)CC[C@@H](O)C[C@@H](O)CC(=O)O[C@H]1C)C[C@H](O)[C@H]2C(=O)O [AMPHOTERICIN B] | 1.3 (≈ 1.2 µg/mL) | 1.3 (≈ 1.2 µg/mL) | 5 (≈ 4.62 µg/mL) | 1.3 (≈ 1.2 µg/mL) | 0.6 (≈ 0.554 µg/mL) |  |  |  | 5 (≈ 4.62 µg/mL) |  |  | 0.3 (≈ 0.277 µg/mL) |
